Patent US8039514B2, “Sulfonamide compounds and use thereof” (Asahi Kasei Pharma Corporation, priority 2008, dated 2011)

These molecules were tested against T1, human calcium-sensing receptor (CaSR) (Homo sapiens, UniProt P41180) (assay: intracellular Ca assay, CaSR antagonist activity in HEK293/hCaSR cells). Conditions: Fura2-AM, inhibition of response to calcium chloride ligand solution, read-out: IC50 values according to the intracellular Ca assay (CaSR antagonist activity).
T1 construct: expressed in transfected cells
T1 sequence (P41180 20-1078): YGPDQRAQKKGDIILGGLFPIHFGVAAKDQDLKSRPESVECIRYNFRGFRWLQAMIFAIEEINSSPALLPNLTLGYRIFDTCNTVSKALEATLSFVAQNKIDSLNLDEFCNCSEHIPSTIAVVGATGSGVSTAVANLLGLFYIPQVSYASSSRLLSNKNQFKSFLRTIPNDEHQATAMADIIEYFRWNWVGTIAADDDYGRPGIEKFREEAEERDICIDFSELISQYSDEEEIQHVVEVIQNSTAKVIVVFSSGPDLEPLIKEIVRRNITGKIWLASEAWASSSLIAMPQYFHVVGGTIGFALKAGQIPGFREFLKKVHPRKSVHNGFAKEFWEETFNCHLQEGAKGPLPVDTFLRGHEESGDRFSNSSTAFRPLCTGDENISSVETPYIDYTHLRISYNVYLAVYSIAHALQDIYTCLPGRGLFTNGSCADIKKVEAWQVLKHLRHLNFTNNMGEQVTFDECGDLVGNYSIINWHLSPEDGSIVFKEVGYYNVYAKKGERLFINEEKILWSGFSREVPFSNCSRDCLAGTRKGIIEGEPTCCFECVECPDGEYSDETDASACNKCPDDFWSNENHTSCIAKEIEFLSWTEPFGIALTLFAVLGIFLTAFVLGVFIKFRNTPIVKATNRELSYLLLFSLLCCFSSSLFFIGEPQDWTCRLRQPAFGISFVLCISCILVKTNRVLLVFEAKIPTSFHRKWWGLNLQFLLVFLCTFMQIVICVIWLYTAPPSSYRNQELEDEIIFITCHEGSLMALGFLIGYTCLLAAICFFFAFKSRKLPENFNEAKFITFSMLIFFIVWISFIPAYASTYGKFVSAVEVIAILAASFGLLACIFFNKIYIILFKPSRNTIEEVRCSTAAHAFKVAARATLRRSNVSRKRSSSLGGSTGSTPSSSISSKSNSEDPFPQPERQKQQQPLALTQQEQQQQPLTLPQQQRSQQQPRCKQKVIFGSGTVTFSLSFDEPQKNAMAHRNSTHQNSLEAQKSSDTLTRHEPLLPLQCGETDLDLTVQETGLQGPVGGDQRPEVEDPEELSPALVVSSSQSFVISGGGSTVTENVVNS
Type: cell-based
Procedure: HEK293 cells stably expressing human calcium-sensing receptor (CaSR) (termed HEK293/hCaSR cells) were used. HEK293/hCaSR cells were cultured in a culture medium [DMEM medium containing 0.5 mg/mL Geneticin, 50 Unit/mL penicillin, 50 μg/mL streptomycin and 10% fetal bovine serum (FBS), all manufactured by Invitrogen] to semiconfluent in an incubator at 37° C. under 5% carbon dioxide atmosphere.
Cultured cells were washed with phosphate buffered saline (PBS(−), manufactured by Dainippon Sumitomo Pharmaceutical Company) which had been prewarmed to 37° C., added with PBS(−) containing 10 mM ethylenediamine tetraacetic acid (EDTA), and then incubated in an incubator at 37° C. for 10 minutes. After adding the culture medium to separate the cells, cell suspension was transferred to a centrifuge tube. Cells were collected by centrifuge at 1,500 rpm for 3 minutes, and resuspended in Ca assay buffer [20 mM HEPES buffer (pH 7.4), 115 mM sodium chloride, 5.4 mM potassium chloride, 0.8 mM magnesium chloride, 0.8 mM calcium chloride, 13.8 mM D(+)-glucose (all manufactured by Wako Pure Chemicals) and 0.1% bovine serum albumin (manufactured by SIGMA)] containing 0.2% Pluronic F-127 (manufactured by Molecular Probes) and […] Fura2-AM (manufactured by DOJINDO LABORATORIES) to obtain a cell suspension of 5×10^6 cells/mL. After incubating at 37° C. for 30 minutes, the cells were washed twice with the Ca assay buffer and suspended in the same buffer to obtain a cell suspension of 1×10^6 cells/60 μL. 60 μL of the cell suspension was aliquoted to each well of a 96 well UV microplate (manufactured by Corning Co.) to give a cell plate.
The test compound was diluted with the Ca assay buffer to five times the final concentration and then 80 μL of the diluted compound was applied to each well of a 96 well round bottomed microplate (manufactured by Corning Co.) to give a sample plate. 80 μL of the Ca assay buffer containing 7.5 mM calcium chloride (i.e., ligand solution) was applied to each well of a 96 well round bottomed microplate to give a ligand plate. Then, thus prepared sample plate, ligand plate, and the cell plate were placed in Functional Drug Screening System (FDSS) 4000 (manufactured by Hamamatsu Photonics K.K.) which had been preswitched on and prewarmed to 37° C. Measurements were then carried out as follows. After incubating the cell plate for 180 seconds, fluorescence intensity was measured every two seconds (excitation wavelength; 340 nm and 380 nm, measurement wavelength; 500 nm). After the measurement for 40 seconds, 20 μL of the test compound solution from the sample plate was added to the cell plate, followed by continuous measurement for 160 seconds. Then, 20 μL of the ligand solution from the ligand plate was added to the cell plate, followed by continuous measurement for 100 seconds.
Amount of change in intracellular Ca concentration is indicated as a peak height of the ratio of the fluorescence intensity with excitation of 340 nm and 380 nm (i.e., fluorescence intensity with excitation at 340 nm/fluorescence intensity with excitation at 380 nm) that is obtained from the difference between the maximum ratio after adding the ligand solution and the ratio before adding the ligand solution. Further, when the peak height obtained from the Ca assay buffer containing no test compound has inhibition ratio of 0% while the peak height obtained from the Ca assay buffer containing no calcium chloride as a ligand solution has inhibition ratio of 100%, inhibition ratio for each test compound (i.e., CaSR antagonist activity) was calculated.

Compound	IC50
CN(C[C@H](O)CNC(C)(C)Cc1ccc2ccccc2c1)S(=O)(=O)c1ccc(-c2ccc(NC(=O)CCC(=O)O)cc2)cc1 [Exp. 3-43, (R)-4-(4′-(N-(2-hydroxy-3-(2-methyl-1-(naphthalen-2-yl)propan-2-ylamino)propyl)-N-methylsulfamoyl)biphenyl-4-ylamino)-4-oxobutanoic acid]	1 to 3 µM
CN(C[C@H](O)CNC(C)(C)CC1Cc2ccccc2C1)S(=O)(=O)c1ccc(-c2ccc(CCC(=O)O)c(F)c2)c(Cl)c1 [Exp. 5-59, (R)-3-(2′-chloro-4′-(N-(3-(1-(2,3-dihydro-1H-inden-2-yl)-2-methylpropan-2-ylamino)-2-hydroxypropyl)-N-methylsulfamoyl)-3-fluorobiphenyl-4-yl)propionic acid]	≤ 0.3 µM
CN(C[C@H](O)CNC(C)(C)Cc1ccc2ccccc2c1)S(=O)(=O)c1cccc(-c2ccc(NC(=O)CCC(=O)O)cc2)c1 [Exp. 3-21, (R)-4-(3′-(N-(2-hydroxy-3-(2-methyl-1-(naphthalen-2-yl)propan-2-ylamino)propyl)-N-methylsulfamoyl)biphenyl-4-ylamino)-4-oxobutanoic acid]	0.3 to 1 µM
CN(C[C@H](O)CNC(C)(C)Cc1ccc2ccccc2c1)S(=O)(=O)c1cccc(-c2ccc(C=CC(=O)O)cc2)c1 [Exp. 3-14, (R)-3-(3′-(N-(2-hydroxy-3-(2-methyl-1-(naphthalen-2-yl)propan-2-ylamino)propyl)-N-methylsulfamoyl)biphenyl-4-yl)acrylic acid]	0.3 to 1 µM
CN(C[C@H](O)CNC(C)(C)Cc1ccc2ccccc2c1)S(=O)(=O)c1ccc(-c2cc3c(c(C(=O)O)c2)OCC3)cc1 [Exp. 3-36, (R)-5-(4-(N-(2-hydroxy-3-(2-methyl-1-(naphthalen-2-yl)propan-2-ylamino)propyl)-N-methylsulfamoyl)phenyl)-2,3-dihydrobenzofuran-7-carboxylic acid]	1 to 3 µM
Cc1cc(C(=O)O)ccc1-c1cccc(S(=O)(=O)N(C)C[C@H](O)CNC(C)(C)CC2Cc3ccccc3C2)c1 [Exp. 3-220, (R)-3′-(N-(3-(1-(2,3-dihydro-1H-inden-2-yl)-2-methylpropan-2-ylamino)-2-hydroxypropyl)-N-methylsulfamoyl)-2-methylbiphenyl-4-carboxylic acid]	≤ 0.3 µM
CCc1cc(-c2ccc(CCC(=O)O)cc2)ccc1S(=O)(=O)N(C)C[C@H](O)CNC(C)(C)CCCc1cccs1 [Exp. 9-92, (R)-3-(3′-ethyl-4′-(N-(2-hydroxy-3-(2-methyl-5-(thiophen-2-yl)pentan-2-ylamino)propyl)-N-methylsulfamoyl)biphenyl-4-yl)propionic acid]	≤ 0.3 µM
CN(C[C@H](O)CNC(C)(C)Cc1ccc2ccccc2c1)S(=O)(=O)c1cccc(-c2cc3c(c(C(=O)O)c2)OCC3)c1 [Exp. 3-13, (R)-5-(3-(N-(2-hydroxy-3-(2-methyl-1-(naphthalen-2-yl)propan-2-ylamino)propyl)-N-methylsulfamoyl)phenyl)-2,3-dihydrobenzofuran-7-carboxylic acid]	1 to 3 µM
Cc1cc(-c2cccc(S(=O)(=O)N(C)C[C@H](O)CNC(C)(C)Cc3ccc4ccccc4c3)c2)ccc1C(=O)O [Exp. 3-8, (R)-3′-(N-(2-hydroxy-3-(2-methyl-1-(naphthalen-2-yl)propan-2-ylamino)propyl)-N-methylsulfamoyl)-3-methylbiphenyl-4-carboxylic acid]	≤ 0.3 µM
CN(C[C@H](O)CNC(C)(C)Cc1ccc2ccccc2c1)S(=O)(=O)c1cccc(-c2ccc(C(=O)O)cc2F)c1 [Exp. 3-12, (R)-2-fluoro-3′-(N-(2-hydroxy-3-(2-methyl-1-(naphthalen-2-yl)propan-2-ylamino)propyl)-N-methylsulfamoyl)biphenyl-4-carboxylic acid]	0.3 to 1 µM
CN(C[C@H](O)CNC(C)(C)CC1Cc2ccccc2C1)S(=O)(=O)c1cc(-c2cc(F)cc(C(=O)O)c2)cc(C(F)(F)F)c1 [Exp. 3-128, (R)-3′-(N-(3-(1-(2,3-dihydro-1H-inden-2-yl)-2-methylpropan-2-ylamino)-2-hydroxypropyl)-N-methylsulfamoyl)-5-fluoro-5′-(trifluoromethyl)biphenyl-3-carboxylic acid]	≤ 0.3 µM

The remaining lines, values ahead:

IC50	Compound
≤ 0.3 µM	CN(C[C@H](O)CNC(C)(C)CC1Cc2ccccc2C1)S(=O)(=O)c1cccc(-c2ccc(C(=O)O)s2)c1 [Exp. 3-130, (R)-5-(3-(N-(3-(1-(2,3-dihydro-1H-inden-2-yl)-2-methylpropan-2-ylamino)-2-hydroxypropyl)-N-methylsulfamoyl)phenyl)thiophen-2-carboxylic acid]
1 to 3 µM	CN(C[C@H](O)CNC(C)(C)Cc1ccc(Cl)c(F)c1)S(=O)(=O)c1cccc(-c2ccc(C(=O)O)cc2F)c1 [Exp. 3-76, (R)-3′-(N-(3-(1-(4-chloro-3-fluorophenyl)-2-methylpropan-2-ylamino)-2-hydroxypropyl)-N-methylsulfamoyl)-2-fluorobiphenyl-4-carboxylic acid]
≤ 0.3 µM	CN(C[C@H](O)CNC(C)(C)CC1Cc2ccccc2C1)S(=O)(=O)c1cccc(-c2ccc(C(=O)O)c(Cl)c2)c1 [Exp. 3-54, (R)-3-chloro-3′-(N-(3-(1-(2,3-dihydro-1H-inden-2-yl)-2-methylpropan-2-ylamino)-2-hydroxypropyl)-N-methylsulfamoyl)biphenyl-4-carboxylic acid]
0.3 to 1 µM	CN(C[C@H](O)CNC(C)(C)Cc1ccc2ccccc2c1)S(=O)(=O)c1cccc(-c2ccc(C(=O)O)c(O)c2)c1 [Exp. 3-24, (R)-3-hydroxy-3′-(N-(2-hydroxy-3-(2-methyl-1-(naphthalen-2-yl)propan-2-ylamino)propyl)-N-methylsulfamoyl)biphenyl-4-carboxylic acid]
≤ 0.3 µM	Cc1cc(-c2cc(C(F)(F)F)cc(S(=O)(=O)N(C)C[C@H](O)CNC(C)(C)CC3Cc4ccccc4C3)c2)ccc1C(=O)O [Exp. 3-197, (R)-3′-(N-(3-(1-(2,3-dihydro-1H-inden-2-yl)-2-methylpropan-2-ylamino)-2-hydroxypropyl)-N-methylsulfamoyl)-3-methyl-5′-(trifluoromethyl)biphenyl-4-carboxylic acid]
≤ 0.3 µM	CN(C[C@H](O)CNC(C)(C)CC1Cc2ccccc2C1)S(=O)(=O)c1cccc(-c2ccc(C(=O)O)cc2F)c1 [Exp. 3-55, (R)-3′-(N-(3-(1-(2,3-dihydro-1H-inden-2-yl)-2-methylpropan-2-ylamino)-2-hydroxypropyl)-N-methylsulfamoyl)-2-fluorobiphenyl-4-carboxylic acid]
